# Test results reported in patent US8440610B2, “Mapkap kinase-2 as a specific target for blocking proliferation of P53-defective cells” (Massachusetts Institute of Technology, priority 2004, dated 2013).
# Assays:
# p38 MAPK/MK2 pathway = assay: Immunoblot of p38 MAPK/MK2 activation after DNA-damaging drugs in U2OS cells; format: cell-based, human; conditions: U2OS cells, 10 μM drug
# Protocol: 14-3-3 pull-down assays, immunoblotting, and immunofluorescence. U2OS cells were lysed in lysis buffer: 50 mM Tris/HCl, pH7.8, 150 mM NaCl, 1.0% NP-40, 5 mM EDTA, 2 mM DTT, 8 μg/ml pepstatin, 8 μg/ml aprotinin, 8 μg/ml leupeptin, 2 mM Na3VO4, 10 mM NaF, 1 μM microcystin for twenty minutes at 4° C. Clarified lysates (0.5-2 mg protein) were incubated with 20 μL glutathione beads or amylose beads containing 10-20 μg 14-3-3-GST or 14-3-3-MBP, respectively, for 120 minutes at 4° C. Following washing, lysates and bead-bound proteins were analysed by SDS-PAGE, followed by transfer to PVDF membranes and immunoblotted with the indicated antibodies. For immunofluorescence experiments, U2OS cells were seeded onto 18 mm^2 coverslips, irradiated or mock-treated, fixed, extracted, and immunostained as described previously (Clapperton et al., Nat. Struct. Mol. Biol., 11:512-518, 2004).
# [1] = tested on: H-Ras-V12 transformed p53−/− MEFs; assay: Tumor formation after implantation of chemotherapy-treated cells in nude mice; format: in vivo; conditions: fifteen days; for tumor formation: MAPKAP kinase-2 siRNA-transfected cells pre-treated with 1 μM cisplatin or 0.1 μM doxorubicin before implantation; for size and weight of tumors relative to tumors formed by untreated cells: control siRNA-transfected cells pre-treated with 1 μM cisplatin or 0.1 μM doxorubicin before implantation
# Protocol: To establish whether the absence of MAPKAP kinase-2 could also enhance the anti-tumorigenic effect of cisplatin or doxorubicin in vivo, we introduced control or MAPKAP kinase-2 siRNAs into H-Ras-V12 transformed p53^−/− MEFs, treated them with either vehicle alone, 1 μM cisplatin or 0.1 μM doxorubicin, and then implanted them into nude mice. Each animal received two injections of MAPKAP kinase-2 siRNA-transfected cells (left flank), and two injections of control siRNA transfected cells (right flank), and tumor formation was assessed at fifteen days. […] In general, the size of the tumors resulting from injection of MAPKAP kinase-2 depleted cells was larger than that from control siRNA-transfected cells (FIGS. 17A, 17B, and 17D).
# Murine tumor models. H-Ras-V 12-transformed p53^−/− MEFs were used for in vivo tumor formation assays. Cells were transfected with siRNA oligonucleotides against GFP or murine MAPKAP kinase-2 for forty-eight hours, then mock treated or incubated with 0.1 μM doxorubicin or 1 μM cisplatin for eight hours, washed three times in growth media, three times in PBS, trypsinized, and resuspended at a concentration of 10^7 cells/ml in PBS. 10^6 cells were subcutaneously injected into the flanks of nude mice (Ncr nu/nu, Taconic).
# U2OS cells = assay: Clonogenic survival assay in U2OS cells; format: cell-based, human; conditions: 10 μM cisplatin or 1 μM doxorubicin for eight hours, colonies after eight days
# Protocol: The experiments in FIGS. 15A-15C and 16A-16D indicate that MAPKAP kinase-2 is critical for cisplatin- and doxorubicin-triggered G1/S and G2/M arrest. These checkpoint defects in MAPKAP kinase-2 depleted cells might render them more sensitive to the antiproliferative and cytotoxic effects of chemotherapy. To investigate this, control or MAPKAP kinase-2 knockdown U2OS cells were mock treated or incubated with increasing doses of cisplatin or doxorubicin for eight hours, washed, trypsinized and replated, and assayed for colony formation eight days later (FIGS. 16A-16B). […] For example, luciferase shRNA cells treated with either 10 μM cisplatin or 1 μM doxorubicin formed ˜40% of the number of colonies as those formed by untreated cells, while in MAPKAP kinase-2-depleted cells, these same cisplatin and doxorubicin treatments reduced the number of colonies to only 4% and 2%, respectively, of those seen in the untreated cells.
# Clonogenic survival assay. Cells were either mock-treated or treated with increasing doses of doxorubicin or cisplatin. After eight hours of treatment, cells were washed three times with growth media and three times with PBS, trypsinized and replated at a concentration of 5000 cells/10 cm^2 dish. After eight days, cells were fixed and stained with 0.1% crystal violet (Sigma-Aldrich). Colonies consisting of >50 cells were counted, and surviving fractions were determined by normalization against untreated cells. Experiments were performed in triplicate and are plotted as mean values with standard deviations indicated by the error bars.
# [2] = tested on: H-Ras-V12 transformed p53−/− MEFs; assay: Tumor regression assay of established tumors in nude mice; format: in vivo; conditions: MK2 depleted tumors; for tumor diameter at start of treatment: before treatment; for tumor diameter after fourteen days of treatment: cisplatin 2 mg/kg or doxorubicin 4 mg/kg intraperitoneal 3× per week
# Protocol: For tumor regression assays, H-Ras-V12 transformed p53^−/− MEFs were stably transfected with a lentiviral transfer vector encoding for shRNA targeting either MAPKAP kinase-2 or luciferase. 10^6 cells were injected into the flanks of nude mice as above, and tumors were allowed to form for twelve days. Mice were then treated with either cisplatin (2 mg/kg, intraperitoneal administration 3× per week) or doxorubicin (4 mg/kg, intraperitoneal administration 3× per week), monitored for a total of twenty-six days, and then sacrificed. Tumor diameter was measured periodically during growth and tumors were weighed at the endpoint. Experiments were performed in quadruplicate, and data plotted as sample means with error bars showing standard deviation.
# We investigated whether the chemo-sensitizing effect of MK2 depletion in p53 null cells in culture could also be observed when pre-existing p53 deficient tumors were treated with DNA damaging drugs in vivo. In these experiments HRas-V12 transformed p53^−/− MEFs were stably transfected with control shRNA or MK2 shRNA expressed from a murine U6 promoter, using a lentiviral delivering system (FIG. 18A). The lentiviral transfer vector also encoded GFP under the control of a CMV promoter, allowing for fluorescent detection of tumors in situ. Tumors were induced by injection of 10^6 cells into the flanks of nude mice. Twelve days later ˜1 cm diameter tumors had formed at all injection sites, and treatment with cisplatin, doxorubicin, or vehicle was begun (FIG. 18B). In the absence of treatment with DNA damaging drugs, the tumors arising from the MK2 depleted cells in the right flanks of these animals grew slightly larger than those of the luciferase shRNA control cells in the left flanks (FIG. 18B-18D). […] Tumors depleted of MK2 shrank from 1.3 cm to 0.4 cm over fourteen days when treated with cisplatin, and from 1.4 to 0.5 cm when treated with doxorubicin. Thus, the sensitizing effect of MK2 depletion on DNA damage induced cell death in p53-deficient primary cells observed in cell culture was also maintained in vivo.
# [3] = MAPKAP kinase-2-depleted U2OS cells
SMILES,"time to MK2 activation (reduction in electrophoretic mobility, pThr-344) (p38 MAPK/MK2 pathway)",tumor formation [1],size and weight of tumors relative to tumors formed by untreated cells [1] [%],number of colonies relative to untreated cells (U2OS cells; [3]) [%],number of colonies relative to untreated cells (U2OS cells; luciferase shRNA U2OS cells) [%],tumor diameter at start of treatment [2] [cm],tumor diameter after fourteen days of treatment [2] [cm]
COc1cccc2c1C(=O)c1c(O)c3c(c(O)c1C2=O)C[C@@](O)(C(=O)CO)C[C@@H]3O[C@H]1C[C@H](N)[C@H](O)[C@H](C)O1 [doxorubicin],Within one hour,completely eliminated the formation of tumors,~35,2,~40,1.4,0.5
N.N.[Cl][Pt][Cl] [cisplatin],Within one hour,completely eliminated the formation of tumors,~35,4,~40,1.3,0.4
